Measured values taken from publication PMC6222614, “Disubstituted 4-Chloro-3-nitrophenylthiourea Derivatives: Antimicrobial and Cytotoxic Studies” (Molecules : A Journal of Synthetic Chemistry and Natural …, 2018).

Experiments:
MT-4 cells = experiment: Cytotoxicity against mock-infected MT-4 cells (MTT); format: cell-based, human; conditions: concentration reducing viability of mock-infected MT-4 cells by 50%, 96 h
Outline: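 Uninfected MT-4 cells (HTLV-1-transformed human CD4+ T cells) seeded at 1 × 10^5 cells/mL in RPMI-1640 with 10% FBS and grown with serially diluted compounds at 37 °C, 5% CO2. Viability read by MTT after 96 h.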

HIV-1 IIIB = experiment: Anti-HIV-1 activity: protection of MT-4 cells from virus-induced cytopathogenicity (MTT); format: cell-based, Human Immunodeficiency Virus type-1; conditions: 50% protection of MT-4 cells from HIV-1 induced cytopathogenicity, MTT, 4-day incubation; read-out: HIV-1IIIB EC50
Outline: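 MT-4 cells (1 × 10^4/well) infected with HIV-1 IIIB at m.o.i. 0.01 (100 CCID50) in presence of serial compound dilutions. Protection from virus-induced cytopathogenicity measured by MTT viability after 4 days at 37 °C.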

HaCaT cells [1] = experiment: Cell viability in HaCaT cells (MTT mitochondrial reduction); format: cell-based, human; conditions: HaCaT, 24 h; moderate according to ISO 10993-5
Protocol: (§1) Human immortal keratinocyte cell line from adult human skin (HaCaT) was purchased from American Type Culture Collection (Rockville, MD, USA), and cultured in Dulbecco’s Modified Eagle’s Medium (DMEM), supplemented with antibiotics (penicillin and streptomycin), 10% heat-inactivated FBS-fetal bovine serum (Gibco Life Technologies, Carlsbad, CA, USA) at 37 °C and 5% CO2 atmosphere. Cells were passaged using trypsin-EDTA (Gibco Life Technologies, Carlsbad, CA, USA) and cultured in 24-well plates (2.5 × 10^4 cells per well). Experiments were conducted in DMEM with 2% FBS.
The cell viability assay was assessed by the determination of MTT salt (3-(4,5-dimethylthiazol-2-yl)-2,5-diphenyltetrazolium bromide, Sigma-Aldrich Chemie, Buchs, Germany) conversion by mitochondrial dehydrogenase. […] Absorbance of solubilized formazan was measured spectrophotometrically at 570 nm (using Epoch microplate reader, BioTek Inc., Winooski, VT, USA, equipped with Gen5 software (BioTech Instruments, Inc., Biokom, Janki, Polska).
Cell viability was presented as a percent of MTT in the treated cells versus the control (cells incubated in serum-free DMEM without extracts). The relative MTT level (%) was calculated as [A]/[B] × 100, where [A] is the absorbance of the test sample and [B] is the absorbance of the control sample containing the untreated cells. […]

HaCaT cells [2] = experiment: Lactate dehydrogenase (LDH) release assay in HaCaT cells; format: cell-based; conditions: 24 h, all applied concentrations (37 µM and higher)
Protocol: Cells were passaged using trypsin-EDTA (Gibco Life Technologies, Carlsbad, CA, USA) and cultured in 24-well plates (2.5 × 10^4 cells per well). Experiments were conducted in DMEM with 2% FBS.
Release of lactate dehydrogenase (LDH) from the cytosol to culture medium is a marker of cell death. The assay was performed after 24 h incubation of HaCaT cells in 24-well plates with investigated concentrations of each compound. The activity of LDH released from the cytosol of damaged cells to the supernatant was measured using the protocol of the cytotoxicity detection kit LDH test described by the manufacturer (Roche Diagnostics, Berlin, Germany). Absorbance was measured at 490 nm using a microplate reader (using Epoch microplate reader, BioTek Inc., Winooski, VT, USA) equipped with Gen5 software (BioTech Instruments, Inc., Biokom, Janki, Polska)
Compounds mediated cytotoxicity expressed as the LDH release (%) was determined by the following equation: [(A test sample—A low control)/(A high control—A low control)] × 100% (A-absorbance); where “low control” were cells in DMEM with 2% FBS without tested compounds, and “high control” were cells incubated in DMEM with 2% FBS with 10% Triton X-100 (100% LDH release).

HaCaT cells [3] = experiment: Proliferation rate in cultures of HaCaT cells (trypan blue counting); format: cell-based, human; conditions: lowest concentrations (8 µM for 11 and 13, 37 µM for 25), 48 h
Protocol: as §1
After 48 h incubation with the lowest concentration of the tested compound the increased number of viable cells were assessed by direct counting of cells using trypan blue with a Countess Automated Cell Counter (Invitrogen, Carlsbad, CA, USA). The results are presented as a % of viable and dead cells versus control.

Structure (SMILES): O=[N+]([O-])c1cc(NC(=S)NCc2ccccc2)ccc1Cl [Compound 25]
- CC50 (MT-4 cells): 36.7 µM
- EC50 (HIV-1 IIIB): > 36.7 µM
- cytotoxicity (MTT) (HaCaT cells [1]): 50%
- cytotoxicity as compared to the LD10 value (HaCaT cells [2]): 7 fold
- inhibition of viable cell proliferation (HaCaT cells [3]): 30–40%
